Results on nine compounds are retold here after patent US10730870B2, “Compounds and methods for the enhanced degradation of targeted proteins” (Arvinas, Inc., priority 2015, dated 2020).

Molecules are shown by their SMILES. Bounds are passed on as bounds.

The test has as its target VHL (Homo sapiens (Human), UniProt P40337). In words: VHL fluorescence polarization (FP) competition assay. In kind it is binding.

By IC50 is commonly meant the point on the concentration scale where inhibition reaches its midpoint. The low end stands for inhibition by little substance, the high end for a need for much substance. As for `Cc1ncsc1-c1ccc(CNC(=O)[C@@H]2C[C@@H](O)CN2C(=O)[C@H](C(C)C)N2Cc3ncccc3C2=O)cc1` [Example 99, (2S,4R)-4-hydroxy-1-((S)-3-methyl-2-(5-oxo-5H-pyrrolo[3,4-b]pyridin-6(7H)-yl)butanoyl)-N-(4-(4-methylthiazol-5-yl)benzyl)pyrrolidine-2-carboxamide], the IC50 (1% in DMSO) worked out at 418 nM. `Cc1ncsc1-c1ccc(CNC(=O)[C@@H]2C[C@@H](O)CN2C(=O)[C@H]([C@H](C)O)N2Cc3ccccc3C2=O)cc1` [Example 45, (2S,4R)-4-hydroxy-1-((2S,3S)-3-hydroxy-2-(1-oxoisoindolin-2-yl)butanoyl)-N-(4-(4-methylthiazol-5-yl)benzyl)pyrrolidine-2-carboxamide] showed an IC50 (1% in DMSO) of around 32000 nM and an IC50 (10% in DMSO) of 472000 nM. For the compound `CCc1ncsc1-c1ccc(CNC(=O)[C@@H]2C[C@@H](O)CN2C(=O)[C@H](C(C)C)N2Cc3ccccc3C2=O)cc1` [Example 5, (2S,4R)—N-(4-(4-ethylthiazol-5-yl)benzyl)-4-hydroxy-1-((S)-3-methyl-2-(1-oxoisoindolin-2-yl)butanoyl)pyrrolidine-2-carboxamide], the IC50 runs as follows: (0.25% in DMSO) 7720 nM; (1% in DMSO) 799 nM; (10% in DMSO) 1580 nM. As to `Cc1ncsc1-c1ccc(CNC(=O)[C@@H]2C[C@@H](O)CN2C(=O)C2(N3Cc4ccccc4C3=O)CCCCC2)cc1` [Example 54, (2S,4R)-4-hydroxy-N-(4-(4-methylthiazol-5-yl)benzyl)-1-(1-(1-oxoisoindolin-2-yl)cyclohexanecarbonyl)pyrrolidine-2-carboxamide], the concentration for half-maximal inhibition (IC50) (1% in DMSO) stood at 834 nM and the IC50 (10% in DMSO) is 1210 nM. As to `Cc1ncsc1-c1ccc(CNC(=O)[C@H]2C[C@H](O)CN2C(=O)[C@@H](CSSC[C@H](NC(=O)CCC(C)C)C(=O)N2C[C@H](O)C[C@H]2C(=O)NCc2ccc(-c3scnc3C)cc2)NC(=O)CCC(C)C)cc1` [Example 60, (2S,4R)-4-hydroxy-1-((R)-3-(((S)-3-((2R,4S)-4-hydroxy-2-(4-(4-methylthiazol-5-yl)benzylcarbamoyl)pyrrolidin-1-yl)-2-(4-methylpentanamido)-3-oxopropyl)disulfanyl)-2-(4-methylpentanamido)propanoyl)-N-(4-(4-methylthiazol-5-yl)benzyl)pyrrolidine-2-carboxamide], the IC50 is 1450 nM (1% in DMSO) and 293 nM (10% in DMSO).

On to `CC(C)[C@@H](C(=O)N1C[C@H](O)C[C@H]1C(=O)NCc1ccc(N2CCOCC2)cc1)N1Cc2ccccc2C1=O` [Example 91, (2S,4R)-4-hydroxy-1-((S)-3-methyl-2-(1-oxoisoindolin-2-yl)butanoyl)-N-(4-morpholinobenzyl)pyrrolidine-2-carboxamide], for which the IC50 (1% in DMSO) was above 100000 nM. `Cc1ncsc1-c1ccc(CNC(=O)[C@@H]2C[C@@H](O)CN2C(=O)C2(N3Cc4ccccc4C3=O)CC2)cc1` [Example 49, (2S,4R)-4-hydroxy-N-(4-(4-methylthiazol-5-yl)benzyl)-1-(1-(1-oxoisoindolin-2-yl)cyclopropanecarbonyl)pyrrolidine-2-carboxamide] came in with an IC50 (10% in DMSO) of 244000 nM. `C=Cc1ncsc1-c1ccc(CNC(=O)[C@@H]2C[C@@H](O)CN2C(=O)[C@H](C(C)C)N2Cc3ccccc3C2=O)cc1` [Example 4, (2S,4R)-4-hydroxy-1-((S)-3-methyl-2-(1-oxoisoindolin-2-yl)butanoyl)-N-(4-(4-vinylthiazol-5-yl)benzyl)pyrrolidine-2-carboxamide]: the IC50 by setting is: (0.25% in DMSO) 3340 nM; (1% in DMSO) 1220 nM; (10% in DMSO) 1940 nM. In turn, `Cc1ncsc1-c1ccc(CNC(=O)[C@@H]2[C@@H](O)[C@@H](O)CN2C(=O)[C@H](C(C)C)N2Cc3ccccc3C2=O)cc1` [Example 147, (2S,3R,4S)-3,4-dihydroxy-1-((S)-3-methyl-2-(1-oxoisoindolin-2-yl)butanoyl)-N-(4-(4-methylthiazol-5-yl)benzyl)pyrrolidine-2-carboxamide] gave a half-maximal inhibitory concentration (IC50) (1% in DMSO) of 12400 nM.
